Entries after “also recorded” stand apart in the source; their conditions may differ.
Test system: b-subunit of ATP synthase (atpF, Rv1306) and hsp (Rv0251c)
Assay type: cell-based, M. bovis BCG (Pasteur strain, ATCC 35734)

NNC(=O)c1ccncc1 [INH, isoniazid]
overexpression of hsp and b-subunit of ATP synthase on 2-D gels: Neither; also recorded: failed to result in overexpression

CCCCCCCCS(=O)(=O)CC(N)=O [OSA, n-octanesulfonylacetamide]
overexpression of hsp and b-subunit of ATP synthase on 2-D gels: significant overexpression | time to overexpression of both proteins post exposure: ≤ 3.5 h

C/C=C/C/C=C/CCC(=O)[C@H]1O[C@H]1C(N)=O [cerulenin]
overexpression of hsp and b-subunit of ATP synthase on 2-D gels: Neither; also recorded: failed to result in overexpression

From patent US20060135568A1, “Methods of treating microbial infections in humans and animals” (priority 2002, published 2006)
